Reference: ChEMBL document CHEMBL5360597, “Medicinal Chemistry Insights into the Development of Small-Molecule Kelch-Like ECH-Associated Protein 1-Nuclear Factor Erythroid 2-Related Factor 2 (Keap1-Nrf2) Protein-Protein Interaction Inhibitors” (J Med Chem, 2023)

Target: Keap1/Nrf2 (Homo sapiens, UniProt Q14145)
Assay: Inhibition of Keap1 Kelch domain (unknown origin)/FITC-labelled-9mer Nrf2 (unknown origin) protein-protein interaction incubated for 30 mins by fluorescence polarisation assay

Chain of Keap1/Nrf2 (Q16236 whole entry, the tested form may be a part): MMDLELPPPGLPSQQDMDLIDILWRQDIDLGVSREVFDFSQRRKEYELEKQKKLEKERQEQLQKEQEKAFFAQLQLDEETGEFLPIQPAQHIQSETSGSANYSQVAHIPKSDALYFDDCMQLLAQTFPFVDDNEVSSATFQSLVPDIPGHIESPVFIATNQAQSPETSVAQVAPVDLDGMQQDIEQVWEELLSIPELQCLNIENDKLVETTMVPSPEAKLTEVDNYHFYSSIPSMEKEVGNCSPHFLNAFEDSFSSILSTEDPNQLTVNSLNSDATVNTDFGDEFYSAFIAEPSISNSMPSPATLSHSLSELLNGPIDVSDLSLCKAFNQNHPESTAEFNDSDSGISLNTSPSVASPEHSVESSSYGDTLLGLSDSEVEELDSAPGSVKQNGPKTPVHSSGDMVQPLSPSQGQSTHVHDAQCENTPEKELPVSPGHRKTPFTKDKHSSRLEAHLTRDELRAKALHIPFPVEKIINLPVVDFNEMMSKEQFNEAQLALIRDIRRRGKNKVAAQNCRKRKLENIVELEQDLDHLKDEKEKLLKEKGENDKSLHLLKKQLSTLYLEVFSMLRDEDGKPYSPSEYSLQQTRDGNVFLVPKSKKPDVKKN
Chain of Keap1/Nrf2 (Q14145 whole entry, the tested form may be a part): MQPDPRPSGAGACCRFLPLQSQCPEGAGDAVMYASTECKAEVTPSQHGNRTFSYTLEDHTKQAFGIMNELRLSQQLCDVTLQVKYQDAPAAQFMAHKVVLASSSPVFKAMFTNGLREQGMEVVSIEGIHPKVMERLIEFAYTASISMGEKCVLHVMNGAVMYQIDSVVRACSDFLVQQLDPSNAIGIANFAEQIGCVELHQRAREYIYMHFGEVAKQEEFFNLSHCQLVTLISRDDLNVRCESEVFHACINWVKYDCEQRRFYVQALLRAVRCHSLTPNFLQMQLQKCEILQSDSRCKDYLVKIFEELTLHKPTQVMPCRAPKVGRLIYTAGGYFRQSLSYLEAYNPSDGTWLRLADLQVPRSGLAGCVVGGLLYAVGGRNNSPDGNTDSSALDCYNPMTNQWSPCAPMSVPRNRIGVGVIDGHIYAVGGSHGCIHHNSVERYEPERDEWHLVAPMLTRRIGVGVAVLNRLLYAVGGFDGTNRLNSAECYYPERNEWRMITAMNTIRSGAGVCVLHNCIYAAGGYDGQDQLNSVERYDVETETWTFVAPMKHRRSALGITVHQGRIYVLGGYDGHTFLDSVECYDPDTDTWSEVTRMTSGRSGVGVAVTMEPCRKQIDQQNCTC

IC50: 31.5 µM
Compound: COc1ccc(S(=O)(=O)Nc2ccc(NS(=O)(=O)c3cccnc3)cc2)cc1
